In patent publication US6177426A, “Morpholino-N-ethyl ester prodrugs of indole sPLA2 inhibitors” (Eli Lilly and Company, priority 2000, dated 2001):

Columns and labels:
[1] = target: recombinant human secreted phospholipase A2; conditions: guinea pig lung tissue; sPLA2 10 ug/ml; data from U.S. Pat. No. 5,654,326; read-out: Tissue test secreted PLA2 Apparent KB; cited from earlier work
[2] = target: recombinant human secreted phospholipase A2; conditions: data from U.S. Pat. No. 5,654,326, cited from earlier work
[3] = Rat plasma pharmacokinetics study, oral bioavailability; assay type: in vivo, Rat (Fischer 344); conditions: compared to other ester prodrugs
Method: The bioavailability of the compound of the invention, ((3-(2-Amino-1,2-dioxoethyl)-1-((1,1'-biphenyl)-3-ylmethyl)-2-methyl-1H-indol-4-yl)oxy)acetic acid morpholino-N-ethyl ester, was determined using a Rat Study Protocol Plasma
The purpose of this assay was to evaluate and compare the oral delivery for selected sPLA2 inhibitors.
The amount of sPLA2 inhibitor was corrected for free acid equivalents.
Suspension of sPLA2 inhibitor in 10% Acacia, prepared just prior to dose administration
Dose: 10 mg/kg (of the parent acid)
Blood samples (0.8 ml) were obtained at the following times: 0.5, 1, 2, 4, 8 and 24 hours (2 rats/timepoint)
Plasma was assayed by HPLC to measure concentrations of the different sPLA2 inhibitors (measured as free acids). Cmax (maximal plasma concentrations), and AUC values were determined from the mean plasma concentration-time profiles.

Cc1c(C(=O)C(N)=O)c2c(OCC(=O)O)cccc2n1Cc1cccc(-c2ccccc2)c1 [formula (II)]
Kb [1]: 57 ± 11 nM
IC50 ([2]; chromogenic assay, 3-4 tests, read-out: Inhibition of human secreted PLA2 IC50 ± mean deviation (3-4 tests)): 4.33 ± 2.31 nM
inhibiting sPLA2 (conclusion in words) ([2]; conclusion of Assay 1): highly active in inhibiting sPLA2

Cc1c(C(=O)C(N)=O)c2c(OCC(=O)OCCN3CCOCC3)cccc2n1Cc1cccc(-c2ccccc2)c1 [Compound of formula (I), ((3-(2-amino-1,2-dioxoethyl)-1-((1,1'-biphenyl)-3-ylmethyl)-2-methyl-1H-indol-4-yl)oxy)acetic acid morpholino-N-ethyl ester]
oral bioavailability compared to other esters (in words) ([3]; listed as morpholino-N-ethyl ester): unexpectedly more bioavailable than other esters

Cc1c(C(=O)C(N)=O)c2c(OCC(=O)OCCN3CCOCC3)cccc2n1Cc1cccc(-c2ccccc2)c1 [formula (I)]
oral bioavailability compared to other esters (in words) [3]: highly bioavailable upon oral administration compared to other common ester type prodrugs
